One data set has as its system BVDV. The experiment in a line: BVDV antiviral assay in MDBK cells, XTT readout of inhibition of virus-induced cell killing. Type of data set: cell-based. Conditions: for Comments: activity against BVDV / toxicity; for TI: TC50/IC50. The procedure:
(§1) Madin-Darby bovine kidney (MDBK) cells were passaged in T-75 flasks for use in the assay. On the day preceding the assay, the cells were trypsinized, pelleted, counted and resuspended at 6×10^4/well in tissue culture medium. Cells were added to 96 well flat bottom plates in a volume of 100 μl per well.
A pretitered aliquot of virus is removed from the freezer (−80° C.) and allowed to thaw slowly to room temperature in a biological safety cabinet. The virus is diluted into tissue culture medium such that the amount of virus added to each well in a volume of 100 μl will be the amount determined to give complete cell killing at 6 days post-infection.
(§2) Interferon was purchased from PBL Biomedical Laboratories (New Brunswick, N.J.) and was in PBS solutions. On the day of testing, the drug stock is diluted in the medium to the desired high concentration and then further diluted in the medium in half log series.
(§3) The day following plating of cells, plates are removed from the incubator, and medium is removed and discarded. Drug dilutions are added to appropriate wells of the microtiter plate in a volume of 100 μl per well. Each dilution is set up in triplicate. Complete medium or complete medium containing appropriately diluted virus is added to appropriate wells in a volume of 100 μl per well.
(§4) The format of the test plate has been standardized. Each plate contains cell control wells (cell only), virus control wells (cells plus virus), drug toxicity control wells (cells plus drug only), drug colorimetric control wells (drug only) as well as experimental wells (drugs plus cells plus virus).
(§5) The cell viability was evaluated by a dye (XTT) uptake procedure. XTT-tetraolium is metabolized by the mitochontrial enzymes of metabolically active cells to a soluble formazan product, allowing the rapid quantitative analysis of the inhibition of virus-induced cell killing by antiviral test substances.
(§6) XTT solution was prepared daily as a stock of 1 mg/ml in PBS. Phenazine methosulfate (PMS) solution was prepared at 15 mg/ml in PVBS and stored in the dark at −20° C. STT/PMS stock was prepared immediately before use by diluting PMS 1:100 into PBS and adding 40 μl per ml of XTT solution. Fifty microliters of XTT/PMS was added to each well of the plate (each well had been loaded with 100 μl fresh medium) and the plate was reincubated for 4 hours at 37° C.
(§7) Adhesive plate sealers were used in place of the lids, the sealed plate was inverted several times to mix the soluble formazan product and the plate was read spectrophotometrically at 450 nm (XTT) with a Molecular Devices Vmax plate reader.
(§8) The efficacy and toxicity of inteferons are analyzed using a computer program (developed by Southern Research Institute) which calculates % CPE reduction, % cell viability, IC25,50 & 95, TC5,50 & 95 and other indices.
(§9) Combination effects are analyzed statistically by Prichard and Shipman method. Effects of the drug combination on efficacy and toxicity are calculated based on the activity or toxicity of the two compounds when tested alone. The expected additive inhibition rate of virus production or the expected additive cell viability rate subtracted from the experimentally determined inhibition rate or viability rate at each combination concentration results in a positive value (synergy), a negative value (antagonism), or zero (addivity).

Data set [1] deals with Madin-Darby bovine kidney (MDBK) cells. The experiment in a line: Cytotoxicity in MDBK cells (drug toxicity control wells, XTT). The procedure: as §1, §2, §3, §4, §5, §6, §7, §8, §9
A general note: Tetrazolium assays rely on reduction of a dye to a coloured formazan, in cell work by metabolically active cells.

Setting [2] is: Compound conc 0.020, INF-αA conc 0.
Where [3] appears, read: Compound conc 0.020, Ribavirin conc 0.
[4] abbreviates: Compound conc 0.063, INF-αA conc 0.
The mark [5] stands for this setting: Compound conc 0.063, Ribavirin conc 0.
Where [6] appears, read: Compound conc 0.200, INF-αA conc 0.
[7] abbreviates: Compound conc 0.200, Ribavirin conc 0.
[8] abbreviates: Compound conc 0.633, INF-αA conc 0.
Where [9] appears, read: Compound conc 0.633, Ribavirin conc 0.
[10] abbreviates: Compound conc 2.00, INF-αA conc 0.
The mark [11] stands for this setting: Compound conc 2.00, Ribavirin conc 0.

Like-named read-outs stand apart in the source and are kept apart here. Marks after values point to notes of the source that are not given here.

On to `NC(=O)c1ncn([C@@H]2O[C@H](CO)[C@@H](O)[C@H]2O)n1` [Ribavirin, 1-β-D-ribofuranosyl-1H-1,2,4-triazole-3carboxamide, reference compound], for which, in the data set on BVDV (Bovine viral diarrhea virus isolates and strains, MDBK), the IC50 was found to be 0.66 µg/mL. In addition, the “Antiviral Percentage Inhibition” value with BVDV (Compound conc 0, Ribavirin conc 0.075) is 0%; in the data set on BVDV (Compound conc 0, Ribavirin conc 0.238), 5.2%; with BVDV (Compound conc 0, Ribavirin conc 0.751) it was 5%; with BVDV (Compound conc 0, Ribavirin conc 2.373), 7.9%; in the data set on BVDV (Compound conc 0, Ribavirin conc 7.5), 43.7%; with BVDV (Ribavirin conc 0.075, INF-αA conc 0) it was 0%. The “Antiviral Percentage Inhibition” value in the data set on BVDV (Ribavirin conc 0.238, INF-αA conc 0) came to 5%; with BVDV (Ribavirin conc 0.751, INF-αA conc 0), 3%; with BVDV (Ribavirin conc 2.373, INF-αA conc 0) it was 31.5%; in the data set with BVDV (Ribavirin conc 7.500, INF-αA conc 0) it was 41.6%. Moreover, in the data set with BVDV, the Comments entry is on record as “Active/Toxic”. For the same molecule, the TC50 in data set [1] (MDBK cells, unit per footnote) is recorded as 7.19* μg/ml.
As to INF-α I: human IFN-α species I, the IC50 in the data set with BVDV (BVDV in MDBK cells) stood at 26.80 U/ml. In the data set with BVDV, the TI was greater than 11.81 and the Comments entry is listed as “Active/Nontoxic”. Further, the TC50 in data set [1] is greater than 316.00 U/ml.
Turning to “(5-Phenyl-1,2,4-thiadiazol)-3-yl thiourea [Compound]”, the “Antiviral Percentage Inhibition” value is given as 5.8% in the data set on BVDV (setting [2]); 7.3% in the data set on BVDV (setting [3]); 7% with BVDV (setting [4]); 5% in the data set with BVDV (setting [5]); 4% in the data set on BVDV (setting [6]); 3.6% in the data set on BVDV (setting [7]). The “Antiviral Percentage Inhibition” value in the data set with BVDV (setting [8]) came out at 11.7%; in the data set on BVDV (setting [9]), 7.6%; in the data set on BVDV (setting [10]) it was 25.9%; in the data set on BVDV (setting [11]), 29.5%. The “combination effect on activity against BVDV in vitro (words)” value with BVDV (listed as (5-Phenyl -1,2,4-thiadiazol)-3-yl thiourea) is “acts synergistically with INF-αA”; in the data set with BVDV (listed as (5-Phenyl-1,2,4-thiadiazol)-3-yl thiourea) it was “does not have antagonistic effect on activity of ribavirin”. Also, the “Cytotoxicity Percentage” value was determined as 0% in data set [1] (setting [2]); 16.3% in data set [1] (setting [3]); 5.8% in data set [1] (setting [4]); 6.7% in data set [1] (setting [5]); 8.3% in data set [1] (setting [6]); 6.2% in data set [1] (setting [7]). For the same molecule, the “Cytotoxicity Percentage” value amounted to 13.5% in data set [1] (setting [8]), 16.9% in data set [1] (setting [9]), 10.3% in data set [1] (setting [10]) and 18.8% in data set [1] (setting [11]). The “combination effect on toxicity of ribavirin towards the cells” value in data set [1] (in vitro) is on record as “imposes antagonistic effect on toxicity of ribavirin”.

B1: INF-α J1: human IFN-α species J1 (protein, UniProt P01567 24-189, looked up)
Interferon alpha-7: CDLPQTHSLRNRRALILLAQMGRISPFSCLKDRHEFRFPEEEFDGHQFQKTQAISVLHEMIQQTFNLFSTEDSSAAWEQSLLEKFSTELYQQLNDLEACVIQEVGVEETPLMNEDFILAVRKYFQRITLYLMEKKYSPCAWEVVRAEIMRSFSFSTNLKKGLRRKD
As to B1, the IC50 in the data set on BVDV (BVDV in MDBK cells) came to 10.60 U/ml. In the data set on BVDV, the TI is given as greater than 29.90 and the Comments result was “Active/Nontoxic”. Further, the TC50 in data set [1] was greater than 316.00 U/ml.

B2: INF-α G: human IFN-α species G (protein, UniProt P01569 22-189, looked up)
Interferon alpha-5: LGCDLPQTHSLSNRRTLMIMAQMGRISPFSCLKDRHDFGFPQEEFDGNQFQKAQAISVLHEMIQQTFNLFSTKDSSATWDETLLDKFYTELYQQLNDLEACMMQEVGVEDTPLMNVDSILTVRKYFQRITLYLTEKKYSPCAWEVVRAEIMRSFSLSANLQERLRRKE
Turning to B2, in the data set on BVDV (BVDV in MDBK cells), the IC50 came out at 23.60 U/ml. Further, in the data set with BVDV, the TI is greater than 13.40 and the Comments result was “Active/Nontoxic”. Besides, the TC50 in data set [1] is recorded as greater than 316.00 U/ml.

B3: INF-α WA: human IFN-α species WA (protein, UniProt P05015 24-189, looked up)
Interferon alpha-16: CDLPQTHSLGNRRALILLAQMGRISHFSCLKDRYDFGFPQEVFDGNQFQKAQAISAFHEMIQQTFNLFSTKDSSAAWDETLLDKFYIELFQQLNDLEACVTQEVGVEEIALMNEDSILAVRKYFQRITLYLMGKKYSPCAWEVVRAEIMRSFSFSTNLQKGLRRKD
For the molecule B3, the IC50 in the data set with BVDV (BVDV in MDBK cells) came out at 6.75 U/ml. Besides, in the data set with BVDV, the TI is greater than 46.78 and the Comments entry was “Active/Nontoxic”. For the same molecule, in data set [1], the TC50 is given as greater than 316.00 U/ml.

B4: INF-α C: human IFN-α species C (protein, UniProt P01566 24-189, looked up)
Interferon alpha-10: CDLPQTHSLGNRRALILLGQMGRISPFSCLKDRHDFRIPQEEFDGNQFQKAQAISVLHEMIQQTFNLFSTEDSSAAWEQSLLEKFSTELYQQLNDLEACVIQEVGVEETPLMNEDSILAVRKYFQRITLYLIERKYSPCAWEVVRAEIMRSLSFSTNLQKRLRRKD
In the case of B4, the IC50 in the data set on BVDV (BVDV in MDBK cells) amounted to 9.12 U/ml. In the data set on BVDV, the TI is given as greater than 34.66 and the Comments result is “Active/Nontoxic”. The TC50 in data set [1] is given as greater than 316.00 U/ml.

B5: INF-α H2: human IFN-α species H2 (protein, UniProt P01570 24-189, looked up)
Interferon alpha-14: CNLSQTHSLNNRRTLMLMAQMRRISPFSCLKDRHDFEFPQEEFDGNQFQKAQAISVLHEMMQQTFNLFSTKNSSAAWDETLLEKFYIELFQQMNDLEACVIQEVGVEETPLMNEDSILAVKKYFQRITLYLMEKKYSPCAWEVVRAEIMRSLSFSTNLQKRLRRKD
As to B5, the IC50 in the data set on BVDV (BVDV in MDBK cells) amounted to 7.00 U/ml. In the data set with BVDV, the TI is reported as greater than 45.12 and the Comments result was “Active/Nontoxic”. For the same molecule, in data set [1], the TC50 is recorded as greater than 316.00 U/ml.

B6: INF-α D: human IFN-α species D (protein, UniProt P01562 24-189, looked up)
Interferon alpha-1/13: CDLPETHSLDNRRTLMLLAQMSRISPSSCLMDRHDFGFPQEEFDGNQFQKAPAISVLHELIQQIFNLFTTKDSSAAWDEDLLDKFCTELYQQLNDLEACVMQEERVGETPLMNADSILAVKKYFRRITLYLTEKKYSPCAWEVVRAEIMRSLSLSTNLQERLRRKE
Consider B6, for which the IC50 with BVDV (BVDV in MDBK cells) amounted to 11.60 U/ml. In addition, in the data set with BVDV, the TI is listed as greater than 27.31 and the Comments entry was “Active/Nontoxic”. In data set [1], the TC50 is greater than 316.00 U/ml.

B7: INF-α F: human IFN-α species F (protein, UniProt P01568 24-189, looked up)
Interferon alpha-21: CDLPQTHSLGNRRALILLAQMGRISPFSCLKDRHDFGFPQEEFDGNQFQKAQAISVLHEMIQQTFNLFSTKDSSATWEQSLLEKFSTELNQQLNDLEACVIQEVGVEETPLMNVDSILAVKKYFQRITLYLTEKKYSPCAWEVVRAEIMRSFSLSKIFQERLRRKE
In the case of B7, the IC50 in the data set on BVDV (BVDV in MDBK cells) amounted to 33.00 U/ml. Also, in the data set with BVDV, the TI was greater than 9.57 and the Comments result is recorded as “Active/Nontoxic”. Also, the TC50 in data set [1] is reported as greater than 316.00 U/ml.

B8: INF-α K: human IFN-α species K (protein, UniProt P05013 21-189, looked up)
Interferon alpha-6: SLDCDLPQTHSLGHRRTMMLLAQMRRISLFSCLKDRHDFRFPQEEFDGNQFQKAEAISVLHEVIQQTFNLFSTKDSSVAWDERLLDKLYTELYQQLNDLEACVMQEVWVGGTPLMNEDSILAVRKYFQRITLYLTEKKYSPCAWEVVRAEIMRSFSSSRNLQERLRRKE
B8: the IC50 in the data set with BVDV (BVDV in MDBK cells) is 24.80 U/ml. Further, in the data set with BVDV, the TI is recorded as greater than 12.72 and the Comments result is given as “Active/Nontoxic”. Moreover, the TC50 in data set [1] is on record as greater than 316.00 U/ml.

The values are drawn from patent publication US6340696B1, “Viral treatment” (The Procter & Gamble Company, priority 1999, dated 2002).
